In article PMC6934184, “Selective DNA-PKcs inhibition extends the therapeutic index of localized radiotherapy and chemotherapy” (The Journal of Clinical Investigation, 2019):

Molecular target: T1, LRRK2 I2020T (Homo sapiens, UniProt Q5S007, I2020T)
T1 construct: purchased Thermo Fisher Scientific (Life Technologies) SelectScreen
Experiment: SelectScreen Adapta
Format: biochemical
Method: The in vitro kinase selectivity of NU5455 was determined using the SelectScreen Broad Assay Panel (Thermo Fisher Scientific) involving activity and binding assays (Supplemental Table 1). […] Class IA PI3Ks were measured using the p85α subunit.
Kinase [ATP] % Assay Kinase [ATP] % Assay Kinase [ATP] % Assay Kinase [ATP] % Assay
DNA-PK Km app 98.3 Z LATS2 n/a 4.7 L KIT D820E n/a 1.3 L GSK3B (GSK3 beta) Km app -2.5 Z
PIK3C3 (hVPS34) Km app 85.9 A PRKCZ (PKC zeta) Km app 4.7 Z GRK1 n/a 1.3 L BMPR2 n/a -2.5 L
PIK3C2B (PI3K-C2 beta) 10 28.9 A FGFR1 Km app 4.7 Z BRSK2 n/a 1.2 L CDC42 BPB (MRCKB) Km app -2.5 Z
SNF1LK2 Km app 26.6 Z MINK1 Km app 4.6 Z NUAK1 (ARK5) Km app 1.2 A AMPK (A2/B2/G2) n/a -2.6 L
HCK Km app 18.0 Z CSF1R (FMS) Km app 4.3 Z CDK9/cyclin K n/a 1.0 L PRKG1 Km app -2.7 Z
NEK2 Km app 17.8 Z CSNK1G3 (CK1 gamma 3) Km app 4.2 Z NUAK2 n/a 1.0 L KIT T670E n/a -2.8 L
ALK Km app 17.3 Z STK32C (YANK3) n/a 4.2 L CDK2/cyclin O n/a 0.9 L ERBB4 (HER4) Km app -2.8 Z
FGFR3 K650M n/a 16.5 L STK22D (TSSK1) Km app 4.2 Z CAMKK2 (CaMKK beta) n/a 0.9 L PLK4 n/a -2.8 L
SIK3 n/a 16.1 L TAOK3 (JIK) n/a 4.2 L FGFR3 Km app 0.9 Z GRK7 Km app -3.0 Z
LYN A Km app 15.2 Z RPS6KA4 (MSK2) Km app 4.2 Z ULK2 n/a 0.9 L MAPKAPK2 Km app -3.1 Z
BMPR1B (ALK6) n/a 14.5 L PTK2B (FAK2) Km app 4.2 Z KIT D816V n/a 0.9 L FGFR4 Km app -3.1 Z
INSRR (IRR) Km app 14.1 Z CLK2 Km app 4.1 Z CAMK1 (CaMK1) 10 0.8 A CASK n/a -3.1 L
PLK2 Km app 14.1 Z STK24 (MST3) Km app 4.1 Z PTK6 (Brk) Km app 0.7 Z GRK5 Km app -3.2 Z
PRKACA (PKA) Km app 14.0 Z CAMK1D (CaMKI delta) Km app 4.1 Z CAMK2B (CaMKII beta) Km app 0.7 Z EGFR (ErbB1) T790M Km app -3.3 Z
EIF2AK2 (PKR) n/a 13.3 L INSR Km app 4.1 Z ACVR1 (ALK2) n/a 0.7 L PAK4 Km app -3.3 Z
PRKX Km app 12.5 Z IRAK1 Km app 4.0 A ABL1 H396P n/a 0.6 L DAPK3 (ZIPK) Km app -3.4 Z
FGR Km app 12.1 Z SRC N1 Km app 3.9 Z MERTK (cMER) A708S n/a 0.6 L RET M918T n/a -3.5 L
CLK1 Km app 11.7 Z SRPK2 Km app 3.9 Z MAPKAPK5 (PRAK) Km app 0.6 Z PRKCQ (PKC theta) Km app -3.7 Z
MARK3 Km app 11.4 Z RPS6KA6 (RSK4) Km app 3.8 Z AKT1 (PKB alpha) Km app 0.5 Z CAMKK1 (CAMKKA) n/a -3.8 L
PDGFRB (PDGFR beta) Km app 11.0 Z GRK6 Km app 3.7 Z NTRK3 (TRKC) Km app 0.4 Z FLT3 D835Y Km app -3.9 Z
PRKCN (PKD3) Km app 10.7 Z PKN1 (PRK1) Km app 3.6 Z ZAP70 Km app 0.3 Z ROCK2 Km app -4.1 Z
STK16 (PKL12) n/a 10.5 L MAP3K8 (COT) 100 3.5 Z CSNK1A1 (CK1 alpha 1) Km app 0.3 Z CHUK (IKK alpha) Km app -4.2 A
FES (FPS) Km app 10.4 Z FLT4 (VEGFR3) Km app 3.5 Z MYLK (MLCK) n/a 0.2 L AXL Km app -4.2 Z
ABL1 Km app 10.4 Z GRK4 Km app 3.5 Z MKNK2 (MNK2) n/a 0.2 L PIM2 Km app -4.3 Z
MUSK Km app 10.3 Z FRK (PTK5) Km app 3.4 Z AMPK (A1/B1/G3) n/a 0.2 L PAK1 Km app -4.4 Z
MAPK1 (ERK2) Km app 10.1 Z FYN A n/a 3.3 L MAP3K2 (MEKK2) n/a 0.1 L BMPR1A (ALK3) n/a -4.4 L
BRAF 100 9.9 Z CDK1/cyclin A2 n/a 3.3 L CDK8/cyclin C n/a 0.1 L STK4 (MST1) Km app -4.4 Z
IGF1R Km app 9.7 Z KIT V559D T670I n/a 3.1 L MARK2 Km app 0.1 Z PRKCH (PKC eta) Km app -4.6 Z
MAPK14 (p38 alpha) Km app 9.7 Z SPHK2 10 3.1 A ICK n/a 0.0 L SGKL (SGK3) Km app -4.6 Z
LCK Km app 9.6 Z FGFR3 G697C n/a 3.1 L FGFR2 Km app 0.0 Z PI4KB (PI4K beta) Km app -4.7 A
MAPK11 (p38 beta) Km app 9.5 Z RIPK2 n/a 3.1 L AKT2 (PKB beta) Km app 0.0 Z PRKCE (PKC epsilon) Km app -4.9 Z
SRC Km app 9.5 Z PAK6 Km app 3.0 Z EPHB2 Km app -0.1 Z PHKG1 Km app -5.0 Z
CHEK1 (CHK1) Km app 9.3 Z LYN B Km app 3.0 Z TGFBR2 n/a -0.1 L PDGFRA D842V Km app -5.0 Z
CAMK2D (CaMKII delta) Km app 9.3 Z DAPK2 n/a 2.9 L TEK (Tie2) Km app -0.1 Z PRKG2 (PKG2) Km app -5.1 Z
PLK1 Km app 9.2 Z EPHA4 Km app 2.9 Z AURKA (Aurora A) Km app -0.1 Z TYRO3 (RSE) Km app -5.1 Z
RET Y791F Km app 9.2 Z PIK3CG (p110 gamma) Km app 2.9 A KIT D816H n/a -0.2 L TAOK2 (TAO1) Km app -5.1 Z
FLT3 Km app 9.1 Z HIPK1 (Myak) Km app 2.8 Z KIT N822K n/a -0.2 L EPHB4 Km app -5.3 Z
MAPK10 (JNK3) 100 9.0 Z ADRBK2 (GRK3) Km app 2.8 Z PRKACG (PRKAC gamma) n/a -0.2 L AURKC (Aurora C) Km app -5.4 Z
CSNK2A2 (CK2 alpha 2) Km app 8.7 Z STK17B (DRAK2) n/a 2.7 L TEK (TIE2) Y1108F n/a -0.3 L JAK1 Km app -5.7 Z […]

T1 sequence (Q5S007 whole entry I2020T): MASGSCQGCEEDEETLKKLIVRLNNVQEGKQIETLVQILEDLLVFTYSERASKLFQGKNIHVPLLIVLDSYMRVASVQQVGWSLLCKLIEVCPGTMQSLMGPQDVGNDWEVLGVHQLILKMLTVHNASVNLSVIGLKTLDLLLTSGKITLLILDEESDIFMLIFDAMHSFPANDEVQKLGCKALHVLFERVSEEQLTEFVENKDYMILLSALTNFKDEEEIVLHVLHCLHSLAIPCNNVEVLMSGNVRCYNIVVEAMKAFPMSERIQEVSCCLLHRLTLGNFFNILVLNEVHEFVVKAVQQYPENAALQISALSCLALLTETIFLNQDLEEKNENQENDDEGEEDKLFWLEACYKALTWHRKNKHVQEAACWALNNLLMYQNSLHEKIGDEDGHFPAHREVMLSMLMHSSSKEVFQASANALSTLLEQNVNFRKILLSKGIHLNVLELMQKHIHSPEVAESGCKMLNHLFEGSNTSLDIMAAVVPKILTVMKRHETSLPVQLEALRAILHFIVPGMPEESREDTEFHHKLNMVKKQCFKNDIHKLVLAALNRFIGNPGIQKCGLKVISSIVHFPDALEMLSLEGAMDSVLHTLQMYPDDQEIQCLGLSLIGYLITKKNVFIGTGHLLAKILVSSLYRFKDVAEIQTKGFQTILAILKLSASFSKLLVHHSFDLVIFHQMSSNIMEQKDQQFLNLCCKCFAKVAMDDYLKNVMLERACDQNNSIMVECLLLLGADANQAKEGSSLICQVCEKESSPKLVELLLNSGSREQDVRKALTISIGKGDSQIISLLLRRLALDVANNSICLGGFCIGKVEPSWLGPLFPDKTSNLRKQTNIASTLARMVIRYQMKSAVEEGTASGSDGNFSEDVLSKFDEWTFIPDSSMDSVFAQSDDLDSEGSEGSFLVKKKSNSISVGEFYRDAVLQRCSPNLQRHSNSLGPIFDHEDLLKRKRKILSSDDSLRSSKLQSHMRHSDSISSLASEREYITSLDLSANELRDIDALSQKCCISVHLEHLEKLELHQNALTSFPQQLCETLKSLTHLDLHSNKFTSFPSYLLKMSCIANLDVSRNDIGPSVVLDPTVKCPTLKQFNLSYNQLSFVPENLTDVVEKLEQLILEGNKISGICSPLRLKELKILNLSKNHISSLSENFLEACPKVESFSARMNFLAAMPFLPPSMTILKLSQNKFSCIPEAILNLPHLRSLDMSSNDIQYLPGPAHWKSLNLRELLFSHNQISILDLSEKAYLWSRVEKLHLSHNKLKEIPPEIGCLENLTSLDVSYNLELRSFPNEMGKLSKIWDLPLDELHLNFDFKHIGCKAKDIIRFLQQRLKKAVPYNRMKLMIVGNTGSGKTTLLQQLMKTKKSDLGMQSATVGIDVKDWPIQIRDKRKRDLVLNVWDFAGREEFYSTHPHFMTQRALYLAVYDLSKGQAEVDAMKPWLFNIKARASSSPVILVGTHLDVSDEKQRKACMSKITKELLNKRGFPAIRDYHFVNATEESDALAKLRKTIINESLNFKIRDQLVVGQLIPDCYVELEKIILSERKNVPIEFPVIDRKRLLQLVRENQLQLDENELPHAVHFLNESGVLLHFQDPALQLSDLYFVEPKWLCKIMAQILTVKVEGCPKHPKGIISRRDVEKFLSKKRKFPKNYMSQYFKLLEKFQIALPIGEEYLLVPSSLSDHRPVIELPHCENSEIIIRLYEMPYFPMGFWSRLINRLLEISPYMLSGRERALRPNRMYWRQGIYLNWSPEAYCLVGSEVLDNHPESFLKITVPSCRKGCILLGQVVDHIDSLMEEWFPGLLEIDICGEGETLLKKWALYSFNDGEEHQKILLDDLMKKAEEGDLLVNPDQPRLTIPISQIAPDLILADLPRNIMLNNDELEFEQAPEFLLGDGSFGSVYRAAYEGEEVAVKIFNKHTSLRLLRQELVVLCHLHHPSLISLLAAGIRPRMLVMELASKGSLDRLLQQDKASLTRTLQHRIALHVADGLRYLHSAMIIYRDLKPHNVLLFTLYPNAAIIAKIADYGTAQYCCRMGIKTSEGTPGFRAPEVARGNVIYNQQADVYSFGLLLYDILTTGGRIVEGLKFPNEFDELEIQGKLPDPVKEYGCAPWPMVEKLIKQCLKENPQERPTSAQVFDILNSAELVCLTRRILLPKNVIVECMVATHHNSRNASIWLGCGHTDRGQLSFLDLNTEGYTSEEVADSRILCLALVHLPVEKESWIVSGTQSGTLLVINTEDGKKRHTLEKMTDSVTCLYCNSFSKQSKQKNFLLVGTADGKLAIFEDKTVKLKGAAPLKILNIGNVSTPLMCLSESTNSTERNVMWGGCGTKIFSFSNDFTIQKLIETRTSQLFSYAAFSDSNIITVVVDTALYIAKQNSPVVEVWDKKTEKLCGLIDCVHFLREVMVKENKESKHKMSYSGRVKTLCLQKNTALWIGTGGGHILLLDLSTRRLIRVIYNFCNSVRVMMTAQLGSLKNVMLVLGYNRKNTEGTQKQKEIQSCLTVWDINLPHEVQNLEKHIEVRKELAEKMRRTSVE

CN(C(=O)CN1CCOCC1)c1ccc2sc3c(-c4cccc5c(=O)cc(N6CC7CCC(C6)O7)oc45)cccc3c2c1 [NU5455]
inhibition at 1 µM: -4%
